The subject of one data set is CYP3A4. Nature of the data set: in vitro. As to conditions: male, Sprague-Dawley (rat), Kunming (mouse), human, liver microsomes, probe PND (2 µM). (In general: Liver microsomes are a subcellular fraction often used to study metabolism.)
Another data set has as its system CYP2E1. The experiment in a line: Chemical inhibition assay of PND metabolism in LMs, CYP2E1 inhibitor. The format is in vitro ADME, rat, mouse and human. The note with it: disulfiram 50 μM (CYP2E1 inhibitor), PND 2 µM, LMs 0.5 mg protein/mL.
The next data set addresses T1, UGT1A9 (Homo sapiens, UniProt O60656).
T1 construct: Male Mongolia human microsomes (HLM), prepared from 30 male donors (19–78 years old); tissue RILD Liver Disease Research Co., Ltd. (Shanghai, China); host or cells: pooled human liver microsomes, 30 male donors
T1 sequence (O60656 26-530): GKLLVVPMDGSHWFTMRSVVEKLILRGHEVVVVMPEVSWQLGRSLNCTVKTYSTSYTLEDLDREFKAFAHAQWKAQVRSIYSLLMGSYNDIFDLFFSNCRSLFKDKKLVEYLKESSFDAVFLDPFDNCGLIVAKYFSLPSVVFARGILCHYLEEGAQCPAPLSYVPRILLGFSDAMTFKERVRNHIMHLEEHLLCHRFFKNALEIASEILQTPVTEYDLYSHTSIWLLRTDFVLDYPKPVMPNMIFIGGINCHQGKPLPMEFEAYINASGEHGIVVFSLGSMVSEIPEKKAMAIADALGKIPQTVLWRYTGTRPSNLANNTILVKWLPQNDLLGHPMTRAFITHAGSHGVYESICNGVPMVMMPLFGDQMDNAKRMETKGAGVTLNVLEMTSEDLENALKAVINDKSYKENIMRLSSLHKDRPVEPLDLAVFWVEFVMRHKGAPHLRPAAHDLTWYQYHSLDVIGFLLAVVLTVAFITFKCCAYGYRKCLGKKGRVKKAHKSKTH
The experiment in a line: Chemical inhibition assay of PND metabolism in HLM, UGT1A9 inhibitor. The format is in vitro ADME. The note with it: liver microsomes, probe PND (2 µM), overall metabolism of PND, niflumic acid 5 μM.

Data set [1] has as its target T2, UGT1A6 (Rattus norvegicus, UniProt P08430).
T2 construct: rat liver microsomes (RLMs) were prepared with 6 Sprague-Dawley males (6–8 weeks); from tissue; host or cells: liver microsomes of male Sprague-Dawley rats, prepared in house
T2 sequence (P08430 26-529): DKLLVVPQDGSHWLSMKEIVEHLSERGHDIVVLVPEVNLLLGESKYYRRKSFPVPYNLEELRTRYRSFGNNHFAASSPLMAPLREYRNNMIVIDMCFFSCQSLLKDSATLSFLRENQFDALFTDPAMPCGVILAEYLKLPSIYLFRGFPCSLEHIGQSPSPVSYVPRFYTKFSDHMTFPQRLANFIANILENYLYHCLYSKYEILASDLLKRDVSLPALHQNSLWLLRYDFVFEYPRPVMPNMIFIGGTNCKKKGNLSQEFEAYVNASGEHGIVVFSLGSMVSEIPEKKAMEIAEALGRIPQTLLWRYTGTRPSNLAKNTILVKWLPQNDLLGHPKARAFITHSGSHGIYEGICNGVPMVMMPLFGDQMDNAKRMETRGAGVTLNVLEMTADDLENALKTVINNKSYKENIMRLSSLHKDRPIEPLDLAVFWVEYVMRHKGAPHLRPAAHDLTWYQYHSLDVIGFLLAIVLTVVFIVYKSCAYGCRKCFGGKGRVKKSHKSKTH
Nature of the data set: Chemical inhibition assay of PND metabolism in RLM, UGT1A6 inhibitor. Format: in vitro ADME. The note with it: liver microsomes, pH 7.4, probe PND (2 µM), overall metabolism of PND, troglitazone 250 μM.

In data set [2] the target is T3, UGT1A6 (Homo sapiens, UniProt P19224).
T3 construct: Male Mongolia human microsomes (HLM), prepared from 30 male donors (19–78 years old); tissue RILD Liver Disease Research Co., Ltd. (Shanghai, China); host or cells: pooled human liver microsomes, 30 male donors
T3 sequence (P19224 27-532): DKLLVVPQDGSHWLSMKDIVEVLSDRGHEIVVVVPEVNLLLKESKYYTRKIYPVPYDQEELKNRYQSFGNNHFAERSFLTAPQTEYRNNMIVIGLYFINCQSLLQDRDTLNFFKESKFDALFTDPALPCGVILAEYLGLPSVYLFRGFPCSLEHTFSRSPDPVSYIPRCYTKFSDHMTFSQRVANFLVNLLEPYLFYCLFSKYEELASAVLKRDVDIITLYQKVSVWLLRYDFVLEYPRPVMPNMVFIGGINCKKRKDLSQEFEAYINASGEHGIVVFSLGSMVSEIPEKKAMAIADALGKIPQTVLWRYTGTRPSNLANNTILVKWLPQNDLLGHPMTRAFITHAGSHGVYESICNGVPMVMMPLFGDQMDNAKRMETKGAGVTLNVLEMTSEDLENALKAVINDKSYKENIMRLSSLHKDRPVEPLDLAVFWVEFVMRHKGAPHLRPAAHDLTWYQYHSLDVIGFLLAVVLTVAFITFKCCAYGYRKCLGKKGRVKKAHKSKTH
The experiment in a line: Chemical inhibition assay of PND metabolism in human LMs, UGT1A6 inhibitor. Format: in vitro ADME. As to conditions: liver microsomes, probe PND (2 µM), overall metabolism of PND, troglitazone 250 μM.

Data set [3] concerns the target T4, UGT1A6 (Mus musculus, UniProt Q64435).
T4 construct: Mouse liver microsomes (MLM) were prepared with 10 Kunming males (6–8 weeks); from tissue; host or cells: liver microsomes of male Kunming mice, prepared in house
T4 sequence (Q64435 27-531): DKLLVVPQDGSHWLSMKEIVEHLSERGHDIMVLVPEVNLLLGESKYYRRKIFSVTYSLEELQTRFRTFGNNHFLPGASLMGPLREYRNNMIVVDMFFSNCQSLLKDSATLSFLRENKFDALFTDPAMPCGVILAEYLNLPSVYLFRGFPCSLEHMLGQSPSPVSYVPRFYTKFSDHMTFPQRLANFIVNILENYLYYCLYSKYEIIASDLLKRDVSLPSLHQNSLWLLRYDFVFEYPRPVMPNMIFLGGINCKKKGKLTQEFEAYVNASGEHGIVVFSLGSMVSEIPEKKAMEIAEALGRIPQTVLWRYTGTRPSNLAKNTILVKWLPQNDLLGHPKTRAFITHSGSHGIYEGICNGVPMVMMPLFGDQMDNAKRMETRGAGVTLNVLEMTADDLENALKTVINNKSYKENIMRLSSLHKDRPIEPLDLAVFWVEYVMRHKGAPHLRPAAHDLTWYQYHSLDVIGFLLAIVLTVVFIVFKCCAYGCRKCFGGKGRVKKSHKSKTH
Nature of the data set: Chemical inhibition assay of PND metabolism in MLM, UGT1A6 inhibitor. As to conditions: liver microsomes, pH 7.4, probe PND (2 µM), overall metabolism of PND, troglitazone 250 μM. The format is in vitro ADME.

A further data set relates to CYP2C9 (CYP2C6). The experiment in a line: in vitro. The note with it: male, Sprague-Dawley (rat), Kunming (mouse), human, liver microsomes, probe PND (2 µM).
For the next data set, the target named is T5, UGT1A1 (Rattus norvegicus, UniProt Q64550).
T5 construct: rat liver microsomes (RLMs) were prepared with 6 Sprague-Dawley males (6–8 weeks); from tissue; host or cells: liver microsomes of male Sprague-Dawley rats, prepared in house
T5 sequence (Q64550 30-535): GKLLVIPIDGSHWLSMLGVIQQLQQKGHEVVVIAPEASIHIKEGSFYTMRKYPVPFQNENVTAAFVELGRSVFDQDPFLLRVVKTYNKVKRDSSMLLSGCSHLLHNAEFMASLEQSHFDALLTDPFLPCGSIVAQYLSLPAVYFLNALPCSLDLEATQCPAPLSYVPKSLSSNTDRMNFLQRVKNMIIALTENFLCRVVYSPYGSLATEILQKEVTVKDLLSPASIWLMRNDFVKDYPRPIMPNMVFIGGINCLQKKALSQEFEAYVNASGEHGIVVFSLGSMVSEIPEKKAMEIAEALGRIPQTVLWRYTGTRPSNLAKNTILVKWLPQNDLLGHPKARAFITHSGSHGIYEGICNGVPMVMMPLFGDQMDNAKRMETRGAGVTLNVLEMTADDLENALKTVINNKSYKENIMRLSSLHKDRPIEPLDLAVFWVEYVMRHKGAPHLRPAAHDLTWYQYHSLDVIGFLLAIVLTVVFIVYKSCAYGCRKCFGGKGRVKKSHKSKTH
Nature of the data set: Chemical inhibition assay of PND metabolism in RLM, UGT1A1 inhibitor. The format is in vitro ADME. The note with it: liver microsomes, pH 7.4, probe PND (2 µM), overall metabolism of PND, bilirubin 100 μM.

The term inhibition denotes the percentage by which the read-out fell short of the control.

Structures are written as SMILES.

`CC(=O)N1CCN(c2ccc(OCC3COC(Cn4ccnc4)(c4ccc(Cl)cc4Cl)O3)cc2)CC1` (centres unmarked) [ketoconazole] showed an inhibition at 2 µM in the data set with CYP3A4 of 19 to 48%.

As for `CCN(CC)C(=S)SSC(=S)N(CC)CC` [disulfiram], the “Effect on metabolism of PND in LMs” value in the data set with CYP2E1 was “decreased significantly”.

`O=C(O)c1cccnc1Nc1cccc(C(F)(F)F)c1` [niflumic acid]: the inhibition at 90 min, 5 μM against UGT1A9 was determined as 36.7%.

Turning to `Cc1c(C)c2c(c(C)c1O)CCC(C)(COc1ccc(CC3SC(=O)NC3=O)cc1)O2` (centres unmarked) [troglitazone], the inhibition at 90 min, 250 μM amounted to 68.6% against UGT1A6 [1], 17.3% at UGT1A6 [2] and 61.8% against UGT1A6 [3].

Molecule `Nc1ccc(S(=O)(=O)Nc2ccnn2-c2ccccc2)cc1` [sulphafenazole] showed an inhibition at 100 µM in the data set on CYP2C9 (CYP2C6) of 19 to 48%.

As for `C=CC1=C(C)/C(=C/c2[nH]c(Cc3[nH]c(/C=C4\NC(=O)C(C)=C4C=C)c(C)c3CCC(=O)O)c(CCC(=O)O)c2C)NC1=O` [bilirubin], the inhibition at 90 min, 100 μM against UGT1A1 is 64.3%.

(Values after publication PMC9920254 (Molecules, 2023).)
